Laboratory results: article PMC13076199, “Convergent evolution of hexenal isomerases in Lepidoptera and plants” (Nature Ecology & Evolution, 2026)

Biological target: T1, MsHi-1 (Manduca sexta, UniProt Z9A1Z6DDJ7)
T1 construct: coding region in pGEX-4T-1, N-terminal GST fusion, E. coli BL21 (DE3), GST Sepharose
Experiment: Hi activity with and without added FAD, SPME-GC-qToF-MS
Format: biochemical
Settings: 1 mM FAD, 0.2 mM Z3AL, 20 mM Tris-HCl pH 7.0, 20 µg BSA

## Cc1cc2nc3c(=O)[nH]c(=O)nc-3n(C[C@H](O)[C@H](O)[C@H](O)COP(=O)(O)OP(=O)(O)OC[C@H]3O[C@@H](n4cnc5c(N)ncnc54)[C@H](O)[C@@H]3O)c2cc1C [flavin adenine dinucleotide]
  Hi activity with and without added FAD, SPME-GC-qToF-MS: addition of FAD to enzymatic reactions moderately increased Hi activity across all tested homologues
